From patent publication US20050222227A1, “Oxazole-amine compounds for the treatment of neurodegenerative disorders” (Pfizer Inc, priority 2004, published 2005)

Tested on: gamma-secretase
Assay: gamma-secretase activity in a solubilized membrane preparation (cell-free assay)
Type: biochemical
Conditions: according to McLendon et al., read-out: IC50 activity for inhibiting gamma-secretase
From the text: The activity of compounds of the Formula I of the present invention in inhibiting gamma-secretase activity may be determined in a solubilized membrane preparation generally according to the description provided in McLendon et al. Cell-free assays for γ-secretase activity, The FASEB Journal (Vol. 14, December 2000, pp. 2383-2386).

IC50: < 10 µM
Compound: C/C=C(\C)c1cnc(NC(=O)[C@H](CCC)NC2CCc3cc(F)cc(F)c3C2)o1 (stereo partly drawn) [Example 1, (S)-2-(5,7-difluoro-1,2,3,4-tetrahydronaphthalen-3-ylamino)-N-(5-((E)-but-2-en-2-yl)oxazol-2-yl)pentanamide]
